From US20250161273A1, “PHARMACEUTICAL COMPOSITION COMPRISING DIPHENYLDIAZOLE DERIVATIVES AND METHODS OF USE” (MODAG GMBH, priority 2022, published 2025)
Read-outs that look alike come from different tables or passages of the source.

Experiment: phase 1 study in patients with mild to moderate Parkinson's disease (PK, safety)
Type: in vivo, human
Conditions: human, plasma; for concentration at 24 h / Cmax / Tmax / AUC / concentration at 12 h / half-life at 7 days / Tmax at 7 days / half-life / AUC(0-t) / AUC(0-inf): oral; for Cmax: read-out: Cmax (geometric mean); for AUC: read-out: AUC(0-tau) (geometric mean); for AUC(0-inf): read-out: AUC(0-inf) (geometric mean)
Excerpt: Study Title: A Single Part Study to Assess the Safety, Tolerability, Pharmacokinetics and Pharmacodynamics of Multiple Ascending Oral Doses of anle138b, and to Characterize the Effect of Food on the Pharmacokinetics of anle138b in Patients with Mild to Moderate Parkinson's Disease.
This was a two-center, double-blind, randomised, placebo-controlled study that enrolled twenty two (22) participants in cohorts (i.e. regimens) A-C. All completed the study per protocol. After completion of Cohorts A to C it was decided to add Cohorts D and E of 24 subjects. Cohort D expanded sample size of previous dosing regiments 150 mg and 300 mg QD and Cohort E administration of anle138b 300 mg for 28 days, under non fasted conditions.
Drug product used is described in section 1.3, supra, placebo was vehicle in capsule. Subjects were between 50 and 80 years of age with a diagnosis of idiopathic PD as defined by the Movement Disorders Society criteria (either fulfilling criteria for “Clinically Established PD” or for “Clinically Probable PD”). They had to present with Hoehn and Yahr stage I-III (i.e. able to walk unaided), and stable medication for PD for 1 month prior to inclusion and anticipated over the study period. The subjects were randomly assigned to receive one of three drug regimens, A, B or C, as follows: • Regimen A—150 mg (5×30 mg) anle138b oral capsules or matching placebo QD, for 7 consecutive days in the fasted state, followed by a single administration of 150 mg anle138b oral capsule or matching placebo on Day 9 in the fed state, • Regimen B—300 mg (10×30 mg) anle138b oral capsules or matching placebo QD, for 7 consecutive days in the fasted state, followed by a single administration of 300 mg anle138b oral capsule (10×30 mg capsules) or matching placebo on Day 9 in the fed state, • Regimen C—150 mg (5×30 mg) anle138b oral capsules or matching placebo BID (total 300 mg daily), […]
Primary endpoints provided safety and tolerability information for the test product by assessing: AEs, vital signs, ECGs, physical examinations and laboratory safety tests, and to provide additional safety and tolerability information for the test product taken also in the fed state by assessing: AEs, vital signs, ECGs, physical examinations and laboratory safety tests.
Secondary endpoints provided PK information for the test product in PD patients by assessing plasma exposure under fast and fed conditions.

## Brc1cccc(-c2cc(-c3ccc4c(c3)OCO4)n[nH]2)c1 [anle138b, 3-(1,3-benzodioxol-5-yl)-5-(3-bromophenyl)-1H-pyrazole]
150 mg, PD patients, Regimen A 150 mg single dose on Day 9, fed state, read-out: C24 (geometric mean)
  concentration at 24 h: 1.87 ng/mL
150 mg, PD patients, Regimen A 150 mg single dose on Day 9, fed state
  Cmax: 167 ng/mL
150 mg, PD patients, Regimen A 150 mg single dose on Day 9, fed state, read-out: Tmax (median)
  Tmax: 3 h
150 mg, PD patients, Regimen A 150 mg single dose on Day 9, fed state, read-out: Tmax (range)
  Tmax: 1.5 to 4 h
150 mg, PD patients, Regimen C 150 mg BID, fast, Day 1
  Cmax: ~546 ng/mL
150 mg, PD patients, Regimen C 150 mg BID, fast, Day 1, read-out: Tmax (median)
  Tmax: 1 h
150 mg, PD patients, Regimen C 150 mg BID, fast, Day 1, read-out: Tmax (range)
  Tmax: 1 to 2 h
150 mg, PD patients, Regimen C 150 mg BID, fast, Day 1, tau 12 h
  AUC: ~993 ng·h/mL
150 mg, PD patients, Regimen C 150 mg BID, fast, Day 1, tau 12 h, read-out: Ctau (geometric mean)
  concentration at 12 h: 7.41 ng/mL
150 mg, PD patients, Regimen C 150 mg BID, fast, Day 7
  Cmax: ~182 ng/mL
150 mg, PD patients, Regimen C 150 mg BID, fast, Day 7, read-out: T1/2 (geometric mean) (converted)
  half-life at 7 days: 14.1 h
150 mg, PD patients, Regimen C 150 mg BID, fast, Day 7, read-out: Tmax (median)
  Tmax at 7 days: 1 h
150 mg, PD patients, Regimen C 150 mg BID, fast, Day 7, read-out: Tmax (range)
  Tmax at 7 days: 1 to 1.5 h
150 mg, PD patients, Regimen C 150 mg BID, fast, Day 7, tau 12 h
  AUC: ~297 ng·h/mL
150 mg, PD patients, Regimen C 150 mg BID, fast, Day 7, tau 12 h, read-out: Ctau (geometric mean)
  concentration at 12 h: 4.05 ng/mL
150 mg, patient, 150 mg once daily for 7 consecutive days, fed conditions as printed, day 7, read-out: T½ of anle138b (clause 14) (converted)
  half-life: ~11.7 h
300 mg, PD patients, Regimen B 300 mg QD (row prints fed, title fasted state), Day 1
  Cmax: ~933 ng/mL
300 mg, PD patients, Regimen B 300 mg QD (row prints fed, title fasted state), Day 1, read-out: Tmax (median)
  Tmax: 1.5 h
300 mg, PD patients, Regimen B 300 mg QD (row prints fed, title fasted state), Day 1, read-out: Tmax (range)
  Tmax: 1 to 4 h
300 mg, PD patients, Regimen B 300 mg QD (row prints fed, title fasted state), Day 1, tau 24 h
  AUC: ~2500 ng·h/mL
300 mg, PD patients, Regimen B 300 mg QD (row prints fed, title fasted state), Day 1, tau 24 h, read-out: Ctau (geometric mean)
  concentration at 24 h: 6.81 ng/mL
300 mg, PD patients, Regimen B 300 mg QD (row prints fed, title fasted state), Day 7
  Cmax: ~365 ng/mL
300 mg, PD patients, Regimen B 300 mg QD (row prints fed, title fasted state), Day 7, read-out: Tmax (median)
  Tmax at 7 days: 1.5 h
300 mg, PD patients, Regimen B 300 mg QD (row prints fed, title fasted state), Day 7, read-out: Tmax (range)
  Tmax at 7 days: 1 to 2 h
300 mg, PD patients, Regimen B 300 mg QD (row prints fed, title fasted state), Day 7, tau 24 h
  AUC: ~722 ng·h/mL
300 mg, PD patients, Regimen B 300 mg QD (row prints fed, title fasted state), Day 7, tau 24 h, read-out: Ctau (geometric mean)
  concentration at 24 h: 3.19 ng/mL
300 mg, PD patients, Regimen B 300 mg QD, Day 7, read-out: T1/2 (geometric mean) (converted)
  half-life at 7 days: 11.8 h
300 mg, PD patients, Regimen B 300 mg single dose on Day 9, fed state, n = 4, read-out: T1/2 (geometric mean) (converted)
  half-life: 13 h
300 mg, PD patients, Regimen B 300 mg single dose on Day 9, fed state, read-out: AUC(0-24) (geometric mean)
  AUC(0-t): 795 ng·h/mL
300 mg, PD patients, Regimen B 300 mg single dose on Day 9, fed state, read-out: AUC(0-last) (geometric mean)
  AUC(0-t): 831 ng·h/mL
300 mg, PD patients, Regimen B 300 mg single dose on Day 9, fed state, read-out: C24 (geometric mean)
  concentration at 24 h: 2.88 ng/mL
300 mg, PD patients, Regimen B 300 mg single dose on Day 9, fed state
  Cmax: 231 ng/mL
300 mg, PD patients, Regimen B 300 mg single dose on Day 9, fed state, read-out: Tmax (median)
  Tmax: 3 h
300 mg, PD patients, Regimen B 300 mg single dose on Day 9, fed state, read-out: Tmax (range)
  Tmax: 3 to 4 h
PD patients, Regimen A 150 mg single dose on Day 9, fed state, n = 3
  AUC(0-inf): 599 ng·h/mL
PD patients, Regimen B 300 mg single dose on Day 9, fed state, n = 4
  AUC(0-inf): 826 ng·h/mL
po, 300 mg, PD patients, multiple QD oral doses of 300 mg, fasted, 3 h post-dose on Day 5, read-out: plasma anle138b concentration (geometric mean)
  concentration at 3 h: 133 ng/mL
